The results in this text go back to ChEMBL document CHEMBL4339249, “Antimicrobial Dolabellanes and Atranones from a Marine-Derived Strain of the Toxigenic Fungus Stachybotrys chartarum” (2019).

Active and inactive are the calls of the source. A value given as a limit tells only on which side of the number the result lay.

One test has as its system Enterococcus faecalis. Briefly: Antimicrobial activity against Enterococcus faecalis ATCC 29212 assessed as inhibition of microbial growth incubated for 16 hrs by broth microdilution method. Format: functional. As to conditions: ATCC 29212, 16 h. A general note: In broth dilution the organism is exposed to a series of concentrations in liquid medium.
Another test concerns Escherichia coli. In words: Antimicrobial activity against ESBL-producing Escherichia coli ATCC 35218 assessed as inhibition of microbial growth incubated for 16 hrs by broth microdilution method. It is filed as functional. Conditions: ATCC 35218, 16 h.
The next test has as its system Acinetobacter baumannii. Briefly: Antimicrobial activity against Acinetobacter baumannii ATCC 19606 assessed as inhibition of microbial growth incubated for 16 hrs by broth microdilution method. It is filed as functional. Conditions: ATCC 19606, 16 h.
The test system of the next test is Pseudomonas aeruginosa. Briefly: Antimicrobial activity against Pseudomonas aeruginosa ATCC 15442 assessed as inhibition of microbial growth incubated for 16 hrs by broth microdilution method. Format: functional. Conditions: ATCC 15442, 16 h.
A further test relates to Klebsiella pneumoniae. In words: Antimicrobial activity against Klebsiella pneumoniae ATCC 700603 assessed as inhibition of microbial growth incubated for 16 hrs by broth microdilution method. Format: functional. As to conditions: Klebsiella pneumoniae, 700603, 16 h.
A further test relates to Staphylococcus aureus. Briefly: Antimicrobial activity against methicillin-resistant Staphylococcus aureus ATCC 43300 assessed as inhibition of microbial growth incubated for 16 hrs by broth microdilution method. As to conditions: ATCC 43300, 16 h. Format: functional.
Test [1] deals with Candida albicans. Briefly: Antimicrobial activity against Candida albicans ATCC 10231 assessed as inhibition of microbial growth incubated for 16 hrs by broth microdilution method. It is filed as functional. As to conditions: ATCC 10231, 16 h.
For test [2], the system named is Candida albicans. In words: Induction of morphological changes in Candida albicans ATCC 10231 assessed as induction of agglutination in cytoplasm at 8 ug/ml incubated for 12 hrs by transmission electron microscopy. It is filed as functional, organism-based.
For test [3], the system named is Candida albicans. Briefly: Induction of morphological changes in Candida albicans ATCC 10231 assessed as induction of cell wall thinning at 8 ug/ml incubated for 12 hrs by transmission electron microscopy. It is filed as functional, organism-based.
Test [4] relates to Candida albicans. Briefly: Induction of morphological changes in Candida albicans ATCC 10231 assessed as induction of deformed cells at 8 ug/ml incubated for 12 hrs by transmission electron microscopy. It is filed as functional, organism-based.
The test system of test [5] is Candida albicans. Briefly: Induction of morphological changes in Candida albicans ATCC 10231 assessed as induction of wrinkled cells at 8 ug/ml incubated for 12 hrs by transmission electron microscopy. Format: functional, organism-based.
Test [6] deals with Candida albicans. In words: Induction of morphological changes in Candida albicans ATCC 10231 assessed as induction of irregular cell shape at 8 ug/ml incubated for 12 hrs by transmission electron microscopy. Format: functional, organism-based.
Test [7] relates to Candida albicans. Briefly: Induction of morphological changes in Candida albicans ATCC 10231 assessed as induction of cell wall deformation at 16 ug/ml incubated for 12 hrs by transmission electron microscopy. Format: functional, organism-based.
Test [8] deals with Candida albicans. Briefly: Induction of morphological changes in Candida albicans ATCC 10231 assessed as induction of cell membrane deformation at 16 ug/ml incubated for 12 hrs by transmission electron microscopy. It is filed as functional, organism-based.
The subject of test [9] is Candida albicans. In words: Induction of morphological changes in Candida albicans ATCC 10231 assessed as induction of vacuoles formation in cytoplasm at 16 ug/ml incubated for 12 hrs by transmission electron microscopy. Format: functional, organism-based.
Test [10] concerns Candida albicans. Briefly: Induction of morphological changes in Candida albicans ATCC 10231 assessed as induction of cell contents leakage at 16 ug/ml incubated for 12 hrs by transmission electron microscopy. It is filed as functional, organism-based.

The MIC is the smallest concentration in the dilution series that meets the test's criterion for growth inhibition. Take `CN[C@H](CC(C)C)C(=O)N[C@H]1C(=O)N[C@@H](CC(N)=O)C(=O)N[C@H]2C(=O)N[C@H]3C(=O)N[C@H](C(=O)N[C@H](C(=O)O)c4cc(O)cc(O)c4-c4cc3ccc4O)[C@H](O)c3ccc(c(Cl)c3)Oc3cc2cc(c3O[C@@H]2O[C@H](CO)[C@@H](O)[C@H](O)[C@H]2O[C@H]2C[C@](C)(N)[C@H](O)[C@H](C)O2)Oc2ccc(cc2Cl)[C@H]1O` [VANCOMYCIN]: in the test with Enterococcus faecalis, the MIC was 0.5 µg/mL.
In the case of `C/C1=C\[C@H]2/C(=C(/C)CC[C@@]3(CO)C(=O)C=C(C(C)C)[C@@H]3CC1)OC(=O)[C@@H]2[C@H](C)O`, the minimum inhibitory concentration (MIC) with Escherichia coli, with Acinetobacter baumannii, with Pseudomonas aeruginosa, with Klebsiella pneumoniae, in the test with Staphylococcus aureus and in the test on Enterococcus faecalis was at least 100 µg/mL throughout. In addition, the MIC in the test on Candida albicans [1] was at least 100 µg/mL.
Take `C/C1=C\[C@H](O)C[C@]2(C)O[C@H]2C[C@@]2(C)C(=O)C=C(C(C)C)[C@@H]2CC1`: the MIC in the test on Escherichia coli, in the test on Acinetobacter baumannii, in the test with Pseudomonas aeruginosa, with Klebsiella pneumoniae, with Staphylococcus aureus and in the test on Enterococcus faecalis was at least 100 µg/mL throughout. Besides, the MIC in the test on Candida albicans [1] is at least 100 µg/mL.
In the case of `CC(=O)C[C@H]1/C=C(\C)[C@@H](O)C[C@H]2C(C(C)C)=CC(=O)O[C@]2(C)CC[C@@H](C)C1=O`, the MIC in the test on Escherichia coli is at least 100 µg/mL; in the test on Acinetobacter baumannii it was at least 100 µg/mL; in the test with Pseudomonas aeruginosa, at least 100 µg/mL; in the test with Klebsiella pneumoniae it was at least 100 µg/mL; with Staphylococcus aureus, 32 µg/mL; in the test with Enterococcus faecalis it was 16 µg/mL. Further, in the test on Candida albicans [1], the MIC was 8 µg/mL. Further, the result in the test with Candida albicans [2], in the test with Candida albicans [3], in the test with Candida albicans [4], in the test with Candida albicans [5], in the test with Candida albicans [6] and with Candida albicans [7] was Active. Further, the result in the test with Candida albicans [8], with Candida albicans [9] and in the test on Candida albicans [10] was Active.
With `C/C1=C\[C@H](O)C[C@]2(C)O[C@H]2C[C@@]2(C)OC(=O)C=C(C(C)C)[C@@H]2CC1`, the MIC in the test on Escherichia coli was at least 100 µg/mL; with Acinetobacter baumannii it was 16 µg/mL; in the test on Pseudomonas aeruginosa, at least 100 µg/mL; in the test with Klebsiella pneumoniae, at least 100 µg/mL; in the test on Staphylococcus aureus, at least 100 µg/mL; in the test with Enterococcus faecalis it was at least 32 µg/mL. In addition, in the test on Candida albicans [1], the MIC is at least 100 µg/mL.
Consider `C/C1=C\[C@H](O)[C@H](O)C/C(C)=C/[C@@]2(C)OC(=O)C=C(C(C)C)[C@@H]2CC1`, for which the MIC in the test with Escherichia coli, in the test on Acinetobacter baumannii, in the test with Pseudomonas aeruginosa, with Klebsiella pneumoniae, with Staphylococcus aureus and with Enterococcus faecalis was at least 100 µg/mL each time. Moreover, in the test on Candida albicans [1], the MIC is at least 100 µg/mL.
Regarding `OC(Cn1cncn1)(Cn1cncn1)c1ccc(F)cc1F` [FLUCONAZOLE], the MIC in the test on Candida albicans [1] amounted to 1 µg/mL.
As for `COC(=O)[C@H]1[C@H](C)O[C@@]2(O)[C@H](C)CC[C@@]3(C)OC(=O)C=C(C(C)C)[C@@H]3C[C@H](O)/C(C)=C/[C@H]12`, the MIC with Escherichia coli, in the test with Acinetobacter baumannii, in the test on Pseudomonas aeruginosa, in the test on Klebsiella pneumoniae, in the test with Staphylococcus aureus and in the test with Enterococcus faecalis was at least 100 µg/mL throughout. In the test with Candida albicans [1], the minimum inhibitory concentration (MIC) was at least 100 µg/mL.
As for `CO/N=C(\C(=O)N[C@@H]1C(=O)N2C(C(=O)O)=C(CSc3nc(=O)c(O)nn3C)CS[C@H]12)c1csc(N)n1` [CEFTRIAXONE], the MIC with Escherichia coli came out at 8 µg/mL; with Acinetobacter baumannii it was 8 µg/mL; with Pseudomonas aeruginosa, 2 µg/mL; in the test with Klebsiella pneumoniae, 2 µg/mL.
For `NCC[C@H](O)C(=O)N[C@@H]1C[C@H](N)[C@@H](O[C@H]2O[C@H](CN)[C@@H](O)[C@H](O)[C@H]2O)[C@H](O)[C@H]1O[C@H]1O[C@H](CO)[C@@H](O)[C@H](N)[C@H]1O` [AMIKACIN], the MIC in the test with Escherichia coli was 4 µg/mL; in the test on Acinetobacter baumannii, 2 µg/mL; in the test with Pseudomonas aeruginosa, 2 µg/mL; in the test on Klebsiella pneumoniae it was 8 µg/mL.
